{"source": "patent US6348445B1", "about": "“Biologically active peptides with reduced toxicity in animals and a method for preparing same” (priority 1992, dated 2002)", "assay": "MTD and LD50, single intraperitoneal administration", "type": "in vivo, mice", "conditions": "for No. of Survivors Day 1 / No. of Survivors Day 2 / No. of Survivors Day 3 / No. of Survivors Day 4 / No. of Survivors Day 5 / No. of Survivors Day 6 / No. of Survivors Day 7 / No. of Survivors Day 8 / No. of Survivors Day 11: 4 injected", "procedure": "Determinations of a maximal tolerated dose (MTD) of a single intravenous (i.v.) administration or intraperitoneal (i.p.) administration of MSI-344 or MSI-1857 in 100 CD-1®BR mice were done. The MTD of a single intravenous (i.v.) administration was 10 mg/kg for MSI-344 and 60 mg/kg for MSI-1857. The MTD of a single intraperitoneal (i.p.) administration was less than 20 mg/kg for MSI-344 and between 50 and 100 mg/kg for MSI-1857.\nTo determine estimates of MTDs and LD50s of MSI-344 and MSI-1857 administered intravenously or intraperitoneally as a single bolus in mice.\nA 5 mg/mL solution of MSI-344 was made in saline (0.9% sodium chloride injection USP, Abbott, North Chicago, Ill.) corrected for peptide content. Solutions of MSI-344 at concentrations of 4, 3, 2, 1.5, 1, and 0.5 mg/mL were made by diluting the 5 mg/mL solution using saline as diluent. (Errors were made in solution preparation of the 4, 3, and 2 mg/mL solutions and results from groups with animals doses with these solutions, i.e. groups 12, 13, and 14, were eliminated from study analysis). A 20 mg/mL solution of MSI-1857 was made in saline. Solutions of MSI-1857 at concentrations of 15, 10, 8, 6, and 5 mg/mL were made by diluting the 20 mg/mL solution using saline as diluent.\nAnother 5 mg/mL solution of MSI-344 was made in saline corrected for peptide content. Solutions of 4, 3 and 2 mg/mL were made by diluting the 5 mg/mL solution using saline as diluent. A 15 mg/mL solution of MSI-1857 in saline was made corrected for peptide content. A 10 mg/mL solution was made by diluting the 15 mg/mL solution with saline.\nMice (four mice per dose group) were intravenously or intraperitoneally administered a single bolus of MSI-344 or MSI-1857 using an injection volume of 10 mL/kg of the appropriate solution concentration. If the first two mice in a group died immediately (within 10 secs) after administration of a dose then no other mice injected with this dose of this compound (for ethical reasons). Survival was monitored daily for at least eight days post-administration. Study designs are presented in Tables IX and X. Toxicity Study # 262 was a supplement to Toxicity Study #261.", "key": {"[1]": {"conditions": "Tox Study 262 group 2, 50 mg/kg IP"}, "[2]": {"conditions": "Tox Study 262 group 3, 40 mg/kg IP"}, "[3]": {"conditions": "Tox Study 262 group 4, 30 mg/kg IP"}, "[4]": {"conditions": "Tox Study 262 group 5, 20 mg/kg IP"}, "[5]": {"conditions": "Tox Study #261 group 11, 50 mg/kg IP"}, "[6]": {"conditions": "Tox Study #261 group 12, dose TBD (solution error, eliminated from analysis) IP"}, "[7]": {"conditions": "Tox Study #261 group 13, dose TBD (solution error, eliminated from analysis) IP"}, "[8]": {"conditions": "Tox Study #261 group 14, dose TBD (solution error, eliminated from analysis) IP"}}, "note": "Where no end group is shown, it is not given here."}
{"sequence": "GIGKFLKKAKKFGKAFVKILKK [MSI-344]", "values": [{"measurement": "No. of Survivors Day 1", "setting": "[1]", "value": 0}, {"measurement": "No. of Survivors Day 2", "setting": "[1]", "value": 0}, {"measurement": "No. of Survivors Day 3", "setting": "[1]", "value": 0}, {"measurement": "No. of Survivors Day 4", "setting": "[1]", "value": 0}, {"measurement": "No. of Survivors Day 5", "setting": "[1]", "value": 0}, {"measurement": "No. of Survivors Day 6", "setting": "[1]", "value": 0}, {"measurement": "No. of Survivors Day 7", "setting": "[1]", "value": 0}, {"measurement": "No. of Survivors Day 8", "setting": "[1]", "value": 0}, {"measurement": "No. of Survivors Day 11", "setting": "[1]", "value": 0}, {"measurement": "No. of Survivors Day 1", "setting": "[2]", "value": 0}, {"measurement": "No. of Survivors Day 2", "setting": "[2]", "value": 0}, {"measurement": "No. of Survivors Day 3", "setting": "[2]", "value": 0}, {"measurement": "No. of Survivors Day 4", "setting": "[2]", "value": 0}, {"measurement": "No. of Survivors Day 5", "setting": "[2]", "value": 0}, {"measurement": "No. of Survivors Day 6", "setting": "[2]", "value": 0}, {"measurement": "No. of Survivors Day 7", "setting": "[2]", "value": 0}, {"measurement": "No. of Survivors Day 8", "setting": "[2]", "value": 0}, {"measurement": "No. of Survivors Day 11", "setting": "[2]", "value": 0}, {"measurement": "No. of Survivors Day 1", "setting": "[3]", "value": 0}, {"measurement": "No. of Survivors Day 2", "setting": "[3]", "value": 0}, {"measurement": "No. of Survivors Day 3", "setting": "[3]", "value": 0}, {"measurement": "No. of Survivors Day 4", "setting": "[3]", "value": 0}, {"measurement": "No. of Survivors Day 5", "setting": "[3]", "value": 0}, {"measurement": "No. of Survivors Day 6", "setting": "[3]", "value": 0}, {"measurement": "No. of Survivors Day 7", "setting": "[3]", "value": 0}, {"measurement": "No. of Survivors Day 8", "setting": "[3]", "value": 0}, {"measurement": "No. of Survivors Day 11", "setting": "[3]", "value": 0}, {"measurement": "No. of Survivors Day 1", "setting": "[4]", "value": 3}, {"measurement": "No. of Survivors Day 2", "setting": "[4]", "value": 3}, {"measurement": "No. of Survivors Day 3", "setting": "[4]", "value": 3}, {"measurement": "No. of Survivors Day 4", "setting": "[4]", "value": 3}, {"measurement": "No. of Survivors Day 5", "setting": "[4]", "value": 3}, {"measurement": "No. of Survivors Day 6", "setting": "[4]", "value": 3}, {"measurement": "No. of Survivors Day 7", "setting": "[4]", "value": 3}, {"measurement": "No. of Survivors Day 8", "setting": "[4]", "value": 3}, {"measurement": "No. of Survivors Day 11", "setting": "[4]", "value": 3}, {"measurement": "No. of Survivors Day 1", "setting": "[5]", "value": 0}, {"measurement": "No. of Survivors Day 2", "setting": "[5]", "value": 0}, {"measurement": "No. of Survivors Day 3", "setting": "[5]", "value": 0}, {"measurement": "No. of Survivors Day 4", "setting": "[5]", "value": 0}, {"measurement": "No. of Survivors Day 5", "setting": "[5]", "value": 0}, {"measurement": "No. of Survivors Day 6", "setting": "[5]", "value": 0}, {"measurement": "No. of Survivors Day 7", "setting": "[5]", "value": 0}, {"measurement": "No. of Survivors Day 8", "setting": "[5]", "value": 0}, {"measurement": "No. of Survivors Day 1", "setting": "[6]", "value": 2}, {"measurement": "No. of Survivors Day 2", "setting": "[6]", "value": 1}, {"measurement": "No. of Survivors Day 3", "setting": "[6]", "value": 1}, {"measurement": "No. of Survivors Day 4", "setting": "[6]", "value": 1}, {"measurement": "No. of Survivors Day 5", "setting": "[6]", "value": 1}, {"measurement": "No. of Survivors Day 6", "setting": "[6]", "value": 1}, {"measurement": "No. of Survivors Day 7", "setting": "[6]", "value": 1}, {"measurement": "No. of Survivors Day 8", "setting": "[6]", "value": 1}, {"measurement": "No. of Survivors Day 1", "setting": "[7]", "value": 0}, {"measurement": "No. of Survivors Day 2", "setting": "[7]", "value": 0}, {"measurement": "No. of Survivors Day 3", "setting": "[7]", "value": 0}, {"measurement": "No. of Survivors Day 4", "setting": "[7]", "value": 0}, {"measurement": "No. of Survivors Day 5", "setting": "[7]", "value": 0}, {"measurement": "No. of Survivors Day 6", "setting": "[7]", "value": 0}, {"measurement": "No. of Survivors Day 7", "setting": "[7]", "value": 0}, {"measurement": "No. of Survivors Day 8", "setting": "[7]", "value": 0}, {"measurement": "No. of Survivors Day 1", "setting": "[8]", "value": 2}, {"measurement": "No. of Survivors Day 2", "setting": "[8]", "value": 1}, {"measurement": "No. of Survivors Day 3", "setting": "[8]", "value": 1}, {"measurement": "No. of Survivors Day 4", "setting": "[8]", "value": 1}, {"measurement": "No. of Survivors Day 5", "setting": "[8]", "value": 1}, {"measurement": "No. of Survivors Day 6", "setting": "[8]", "value": 1}, {"measurement": "No. of Survivors Day 7", "setting": "[8]", "value": 1}, {"measurement": "No. of Survivors Day 8", "setting": "[8]", "value": 1}, {"measurement": "LD50", "setting": "mouse, in vivo, ip, CD-1 mice, estimated from dose response curves", "value": 23.5, "unit": "mg/kg"}, {"measurement": "MTD", "setting": "mouse, in vivo, ip, CD-1 mice, read-out: MTD of a single intraperitoneal (i.p.) administration", "value": "< 20", "unit": "mg/kg"}]}
